Test results as given in patent US11046699B2, “Pyrazolo-pyrimidin-amino-cycloalkyl compounds and their therapeutic uses” (RAPT THERAPEUTICS, INC., priority 2018, dated 2021).
Like-named read-outs stand apart in the source and are kept apart here.

Biological target: GCN2 (Homo sapiens, UniProt Q9P2K8)
Assay: GCN2 enzymatic endpoint assay: phosphorylation of GFP-eIF2α measured by TR-FRET (Lanthascreen)
Assay type: biochemical
Method in brief: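 Read-out is the TR-FRET ratio of acceptor signal at 520 nm to terbium donor at 495 nm, rising with antibody binding to phosphorylated GFP-eIF2α. Endpoint format: 2 μM ATP, 80 nM substrate, 90 minutes at room temperature, EDTA stop.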

[1] = tested as described in Example 77, compound and/or hydrochloride, dihydrochloride or trifluoroacetic acid salt, read-out: IC 50 Activity

Chain of GCN2 (Q9P2K8 whole entry): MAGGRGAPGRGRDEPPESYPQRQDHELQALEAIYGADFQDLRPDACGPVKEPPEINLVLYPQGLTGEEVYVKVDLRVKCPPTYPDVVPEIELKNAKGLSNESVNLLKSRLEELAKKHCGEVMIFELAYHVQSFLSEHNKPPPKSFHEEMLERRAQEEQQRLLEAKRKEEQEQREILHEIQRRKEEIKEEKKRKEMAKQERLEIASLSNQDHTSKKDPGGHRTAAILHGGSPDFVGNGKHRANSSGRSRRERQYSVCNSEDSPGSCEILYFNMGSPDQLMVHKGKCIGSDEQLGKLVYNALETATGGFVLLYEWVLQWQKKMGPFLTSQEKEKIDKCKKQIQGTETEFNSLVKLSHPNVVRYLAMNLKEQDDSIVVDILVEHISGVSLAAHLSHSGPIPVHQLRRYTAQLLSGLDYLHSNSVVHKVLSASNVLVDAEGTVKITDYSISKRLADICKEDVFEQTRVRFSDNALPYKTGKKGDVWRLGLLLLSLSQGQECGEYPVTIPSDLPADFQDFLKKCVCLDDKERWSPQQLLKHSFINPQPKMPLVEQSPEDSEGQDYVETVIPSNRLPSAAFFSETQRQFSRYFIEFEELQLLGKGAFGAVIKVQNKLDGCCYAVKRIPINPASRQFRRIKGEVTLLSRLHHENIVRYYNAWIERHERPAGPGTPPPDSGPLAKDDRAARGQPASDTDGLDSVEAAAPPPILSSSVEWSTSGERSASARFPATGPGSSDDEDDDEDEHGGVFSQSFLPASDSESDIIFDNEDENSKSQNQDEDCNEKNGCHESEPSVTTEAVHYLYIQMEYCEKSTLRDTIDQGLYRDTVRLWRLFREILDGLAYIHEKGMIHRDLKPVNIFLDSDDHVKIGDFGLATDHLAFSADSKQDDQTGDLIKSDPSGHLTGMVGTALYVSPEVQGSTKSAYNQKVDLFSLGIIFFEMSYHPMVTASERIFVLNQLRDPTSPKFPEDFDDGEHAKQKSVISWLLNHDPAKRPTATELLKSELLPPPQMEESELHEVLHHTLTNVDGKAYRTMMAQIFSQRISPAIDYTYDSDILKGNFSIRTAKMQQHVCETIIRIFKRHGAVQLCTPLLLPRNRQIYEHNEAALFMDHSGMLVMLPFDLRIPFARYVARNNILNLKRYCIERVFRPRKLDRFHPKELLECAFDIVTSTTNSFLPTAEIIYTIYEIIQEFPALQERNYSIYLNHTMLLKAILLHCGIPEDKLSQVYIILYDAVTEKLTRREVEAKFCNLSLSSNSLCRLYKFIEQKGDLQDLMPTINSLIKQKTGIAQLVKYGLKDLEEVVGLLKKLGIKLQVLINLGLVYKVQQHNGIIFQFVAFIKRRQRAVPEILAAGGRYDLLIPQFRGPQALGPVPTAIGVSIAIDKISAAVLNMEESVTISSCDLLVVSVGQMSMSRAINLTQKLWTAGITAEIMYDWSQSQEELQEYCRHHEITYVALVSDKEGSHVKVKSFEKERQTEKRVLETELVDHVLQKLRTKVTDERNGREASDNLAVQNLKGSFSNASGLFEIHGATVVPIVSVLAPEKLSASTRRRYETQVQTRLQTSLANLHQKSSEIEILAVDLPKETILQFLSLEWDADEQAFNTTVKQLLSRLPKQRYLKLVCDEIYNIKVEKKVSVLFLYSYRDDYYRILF

Compound	IC50 [1] [nM]	IC50 (GCN2 biochemical IC50, 4 nM GCN2, 2 μM ATP, 80 nM GFP-eIF2α, 90 min RT, read-out: GCN2 activity) [nM]
Cc1nnc(-c2ccc(-n3nc(Br)c4cnc(N[C@@H]5CC[C@]6(CCNC6=O)C5)nc43)cc2)s1	25 to 200	–
CNS(=O)(=O)[C@@H]1CC[C@@H](Nc2ncc3c(Br)nn(-c4ccc(-c5nnc(C)s5)cc4)c3n2)C1 [Example 68, (1R,3R)-3-((3-bromo-1-(4-(5-methyl-1,3,4-thiadiazol-2-yl)phenyl)-1H-pyrazolo[3,4-d]pyrimidin-6-yl)amino)-N-methylcyclopentane-1-sulfonamide]	–	< 25
CNC(=O)[C@]1(C)CC[C@@H](Nc2ncc3c(Br)nn(-c4ccc(-c5nnc(CN)s5)cc4)c3n2)C1 [(1R,3R)-3-[[1-[4-[5-(aminomethyl)-1,3,4-thiadiazol-2-yl]phenyl]-3-bromo-pyrazolo [3,4-d]pyrimidin-6-yl]amino]-N,1-dimethyl-cyclopentanecarboxamide]	25 to 200	–
CNC(=O)[C@]1(C)CC[C@@H](Nc2ncc3c(Br)nn(-c4cc(CCCN)c5ncccc5c4)c3n2)C1 [(1R,3R)-3-[[1-[8-(3-aminopropyl)-6-quinolyl]-3-bromo-pyrazolo[3,4-d]pyrimidin-6-yl]amino]-N,1-dimethyl-cyclopentanecarboxamide]	25 to 200	–
CNC(=O)[C@]1(C)CC[C@@H](Nc2ncc3c(Br)nn(-c4ccn5c(=O)ccnc5c4)c3n2)C1 [(1R,3R)-3-[[3-bromo-1-(4-oxopyrido[1,2-a]pyrimidin-8-yl)pyrazolo[3,4-d]pyrimidin-6-yl]amino]-N,1-dimethyl-cyclopentane-carboxamide]	25 to 200	–
C[C@H](N)c1cc(Cl)cc(-n2nc(Br)c3cnc(N[C@@H]4CC[C@@](C)(C(=O)NCC(F)F)C4)nc32)c1 [(1R,3R)-3-[[1-[3-[(1S)-1-aminoethyl]-5-chloro-phenyl]-3-bromo-pyrazolo[3,4-d]pyrimidin-6-yl]amino]-N-(2,2-difluoro-ethyl)-1-methyl-cyclopentanecarboxamide]	25 to 200	–
CNC(=O)[C@@H]1CC[C@@H](Nc2ncc3c(Br)nn(-c4cc(OC)c5ncccc5c4)c3n2)C1 [(1R,3R)-3-[[3-bromo-1-(8-methoxy-6-quinolyl)pyrazolo[3,4-d]pyrimidin-6-yl]amino]-N-methyl-cyclopentanecarboxamide]	< 25	–
CNC(=O)[C@]1(C)CC[C@@H](Nc2ncc3c(Br)nn(-c4ccc(-c5ncco5)c([C@H](C)CN)c4)c3n2)C1 [(1R,3R)-3-[[1-[3-[(1S)-2-amino-1-methyl-ethyl]-4-oxazol-2-yl-phenyl]-3-bromo-pyrazolo[3,4-d]pyrimidin-6-yl]amino]-N,1-dimethyl-cyclopentanecarboxamide]	25 to 200	–
Fc1cc(-n2nc(Br)c3cnc(NC4CCOC4)nc32)cc2cccnc12 (centres unmarked) [3-bromo-1-(8-fluoro-6-quinolyl)-N-tetrahydrofuran-3-yl-pyrazolo[3,4-d] pyrimidin-6-amine]	25 to 200	–
CNC(=O)[C@]1(C)CC[C@@H](Nc2ncc3c(Br)nn(-c4cc(C#N)cc(OCC5CNC5)c4)c3n2)C1 [(1R,3R)-3-[[1-[3-(azetidin-3-ylmethoxy)-5-cyano-phenyl]-3-bromo-pyrazolo[3,4-d]pyrimidin-6-yl]amino]-N,1-dimethyl-cyclopentanecarboxamide]	< 25	–
N#Cc1cc(-n2nc(Br)c3cnc(N[C@@H]4CC[C@@H](C(=O)N5CC(N6CCC(F)(F)C6)C5)C4)nc32)cc2cccnc12 [6-(3-bromo-6-(((1R,3R)-3-(3-(3,3-difluoro-pyrrolidin-1-yl)azetidine-1-carbonyl)cyclo-pentyl)amino)-1H-pyrazolo[3,4-d]pyrimidin-1-yl)quinoline-8-carbonitrile]	25 to 200	–
CNC(=O)[C@]1(C)CC[C@@H](Nc2ncc3c(Br)nn(-c4ccc(-c5nnc(C(C)(C)N)s5)c(C#N)c4)c3n2)C1 [(1R,3R)-3-[[1-[4-[5-(1-amino-1-methyl-ethyl)-1,3,4-thiadiazol-2-yl]-3-cyano-phenyl]-3-bromo-pyrazolo[3,4-d]pyrimidin-6-yl]amino]-N,1-dimethyl-cyclopentanecarboxamide]	25 to 200	–
CNC(=O)[C@]1(C)CC[C@@H](Nc2ncc3c(Br)nn(-c4ccc(-c5ncco5)c(NC(=O)CC#N)c4)c3n2)C1 [(1R,3R)-3-[[3-bromo-1-[3-[(2-cyanoacetyl)amino]-4-oxazol-2-yl-phenyl]pyrazolo [3,4-d]pyrimidin-6-yl]amino]-N,1-dimethyl-cyclopentanecarboxamide]	25 to 200	–
OC1CC(Nc2ncc3c(Br)nn(-c4cc(F)c5ncccc5c4)c3n2)C1 (centres unmarked) [3-[[3-bromo-1-(8-fluoro-6-quinolyl)pyrazolo[3,4-d]pyrimidin-6-yl]amino] cyclobutanol]	25 to 200	–
CNC(=O)[C@]1(C)CC[C@@H](Nc2ncc3c(Br)nn(-c4cc(CN[S+](C)[O-])c5nccnc5c4)c3n2)C1 (stereo partly drawn) [(1R,3R)-3-[[3-bromo-1-[8-(methane-sulfinamidomethyl)quinoxalin-6-yl]pyrazolo[3,4-d]pyrimidin-6-yl]amino]-N,1-dimethyl-cyclopentane-carboxamide]	25 to 200	–
N#Cc1cc(-n2nc(Br)c3cnc(N[C@@H]4CC[C@@H](C(=O)NC[C@H]5COCCN5)C4)nc32)cc2cccnc12 [(1R,3R)-3-((3-bromo-1-(8-cyanoquinolin-6-yl)-1H-pyrazolo[3,4-d]pyrimidin-6-yl)amino)-N-(((S)-morpholin-3-yl)methyl)cyclopentane-1-carboxamide]	< 25	–
CNC(=O)[C@@]1([C@H](C)C#N)CC[C@@H](Nc2ncc3c(Br)nn(-c4ccc(-c5nnc(C)s5)cc4)c3n2)C1 [(1S,3R)-3-[[3-bromo-1-[4-(5-methyl-1,3,4-thiadiazol-2-yl)phenyl]pyrazolo [3,4-d]pyrimidin-6-yl]amino]-1-[(1S)-1-cyanoethyl]-N-methyl-cyclopentane-carboxamide]	25 to 200	–
CNC(=O)[C@]1(C)CC[C@@H](Nc2ncc3c(Br)nn(-c4ccc(-c5nnc(C)s5)c(OCS(C)(=O)=O)c4)c3n2)C1 [(1R,3R)-3-[[3-bromo-1-[3-(methylsulfonyl-methoxy)-4-(5-methyl-1,3,4-thiadiazol-2-yl)phenyl]pyrazolo[3,4-d]pyrimidin-6-yl]amino]-N,1-dimethyl-cyclopentane-carboxamide]	25 to 200	–
C[C@]1(C(=O)O)CC[C@@H](Nc2ncc3c(Br)nn(-c4cc(CCN)c5ncccc5c4)c3n2)C1 [(1S,3R)-3-[[1-[8-(2-aminoethyl)-6-quinolyl]-3-bromo-pyrazolo[3,4-d]pyrimidin-6-yl]amino]-1-methyl-cyclopentanecarboxylic acid]	25 to 200	–
CNC(=O)[C@]1(C)CC[C@@H](Nc2ncc3c(Br)nn(-c4ccc5c(=O)n(C)c(=O)n(C)c5c4)c3n2)C1 [(1R,3R)-3-[[3-bromo-1-(1,3-dimethyl-2,4-dioxo-quinazolin-7-yl)pyrazolo [3,4-d]pyrimidin-6-yl]amino]-N,1-dimethyl-cyclopentanecarboxamide]	< 25	–
C[C@@H]1CN(C(=O)[C@@H]2CC[C@@H](Nc3ncc4c(Br)nn(-c5ccc6ncccc6c5)c4n3)C2)CCO1 [((1R,3R)-3-((3-bromo-1-(quinolin-6-yl)-1H-pyrazolo[3,4-d]pyrimidin-6-yl)amino)cyclo-pentyl)((R)-2-methylmorpholino)methanone]	25 to 200	–
CCN(CC)C(=O)C1(C)CC[C@@H](Nc2ncc3c(Br)nn(-c4cc(F)c5ncccc5c4)c3n2)C1 (stereo partly drawn) [(3R)-3-[[3-bromo-1-(8-fluoro-6-quinolyl)pyrazolo[3,4-d]pyrimidin-6-yl]amino]-N,N-diethyl-1-methyl-cyclopentanecarboxamide]	25 to 200	–
C[C@@]1(C(=O)N2CCN3C(=O)COCC3C2)CC[C@@H](Nc2ncc3c(Br)nn(-c4cc(F)c5ncccc5c4)c3n2)C1 (stereo partly drawn) [8-[(1R,3R)-3-[[3-bromo-1-(8-fluoro-6-quinolyl)pyrazolo[3,4-d]pyrimidin-6-yl]amino]-1-methyl-cyclopentane-carbonyl]-6,7,9,9a-tetrahydro-1H-pyrazino[2,1-c][1,4]oxazin-4-one]	25 to 200	–
CNC(=O)[C@]1(O)CC[C@@H](Nc2ncc3c(Br)nn(-c4cc(F)c5ncccc5c4)c3n2)C1 [(1S,3R)-3-[[3-bromo-1-(8-fluoro-6-quinolyl)pyrazolo[3,4-d]pyrimidin-6-yl]amino]-1-hydroxy-N-methyl-cyclopentanecarboxamide]	25 to 200	–
CNC(=O)[C@]1(C)CCC(Nc2ncc3c(Br)nn(-c4ccc5c(=O)[nH]ccc5c4)c3n2)C1 (stereo partly drawn) [(1R)-3-[[3-bromo-1-(1-oxo-2H-isoquinolin-6-yl)pyrazolo[3,4-d]pyrimidin-6-yl]amino]-N,1-dimethyl-cyclopentanecarboxamide]	25 to 200	–
CNC(=O)[C@H]1CC[C@@H](Nc2ncc3c(Br)nn(-c4ccc5nc(OC)ccc5c4)c3n2)C1 [(1S,3R)-3-[[3-bromo-1-(2-methoxy-6-quinolyl)pyrazolo[3,4-d]pyrimidin-6-yl]amino]-N-methyl-cyclopentanecarboxamide]	25 to 200	–
CNC(=O)[C@]1(C)CC[C@@H](Nc2ncc3c(Br)nn(-c4cc(CC(C)O)c5ncccc5c4)c3n2)C1 (stereo partly drawn) [(1R,3R)-3-[[3-bromo-1-[8-(2-hydroxy-propyl)-6-quinolyl]pyrazolo[3,4-d]pyrimidin-6-yl]amino]-N,1-dimethyl-cyclopentanecarboxamide]	< 25	–
CNC(=O)[C@]1(C)CC[C@@H](Nc2ncc3c(Br)nn(-c4cc(C(C)(C)O)c5ncccc5c4)c3n2)C1 [(1R,3R)-3-[[3-bromo-1-[8-(1-hydroxy-1-methyl-ethyl)-6-quinolyl]pyrazolo[3,4-d]pyrimidin-6-yl]amino]-N,1-dimethyl-cyclopentanecarboxamide]	25 to 200	–
O=C(N[C@@H]1CCOC1)[C@@H]1CC[C@@H](Nc2ncc3c(Br)nn(-c4cc(Cl)c5ncccc5c4)c3n2)C1 [(1R,3R)-3-((3-bromo-1-(8-chloroquinolin-6-yl)-1H-pyrazolo[3,4-d]pyrimidin-6-yl)amino)-N-((R)-tetrahydrofuran-3-yl)cyclopentane-1-carboxamide]	< 25	–
